Key:
SMYD3 [1] = biological target: T1, SMYD3 (Homo sapiens (Human), UniProt Q9H7B4); experiment: SMYD3 cell assay (Trimethyl-MEKK2 In-Cell Western in 293T/17 cells); format: cell-based; conditions: Table 2A; read-out: SMYD3 Cell IC50
How it was run: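 In-Cell Western ratio of trimethyl-Lys260 MEKK2 to anti-flag signal; percent inhibition from DMSO and maximum-inhibition controls, IC50 by non-linear regression, triplicates.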

SMYD3 [2] = biological target: T1, SMYD3; experiment: SMYD3 biochemical assay (SPA, 3H-SAM methylation of MEKK2 protein substrate); conditions: Table 2A; read-out: SMYD3 Biochem IC50
How it was run: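 Full-length native human SMYD3 (E. coli-expressed, tags removed) preincubated with compounds 30 min at room temperature, then reaction started with 3H-SAM and GST-tagged MEKK2 protein in 25 mM Tris-Cl pH 8.0, 1 mM TCEP, 0.005% BSG, 0.005% Tween 20. Quenched with unlabelled SAM (100 uM final); 3H-MEKK2 counted by SPA.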

T1 sequence (Q9H7B4 whole entry): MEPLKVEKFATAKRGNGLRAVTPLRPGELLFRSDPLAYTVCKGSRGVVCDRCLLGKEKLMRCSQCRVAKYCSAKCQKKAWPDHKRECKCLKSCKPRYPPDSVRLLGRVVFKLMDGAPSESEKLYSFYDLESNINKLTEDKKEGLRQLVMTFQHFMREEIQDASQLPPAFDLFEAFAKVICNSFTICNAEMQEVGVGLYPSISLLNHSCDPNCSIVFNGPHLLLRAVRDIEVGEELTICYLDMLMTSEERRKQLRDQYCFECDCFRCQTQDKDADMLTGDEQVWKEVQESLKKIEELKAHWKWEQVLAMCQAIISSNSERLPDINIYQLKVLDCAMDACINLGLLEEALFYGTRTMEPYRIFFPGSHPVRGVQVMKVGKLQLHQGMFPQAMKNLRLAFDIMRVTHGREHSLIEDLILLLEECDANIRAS

Compound	IC50 (SMYD3 [1]) [nM]	IC50 (SMYD3 [2]) [nM]
O=C(N[C@H]1C[C@H]2CC[C@@H](C1)N2S(=O)(=O)N1CC2(CNC2)C1)c1cc(C2CC2)on1 [compound 580, N-((1R,3r,5S)-8-((2,6-diazaspiro[3.3]heptan-2-yl)sulfonyl)-8-azabicyclo[3.2.1]octan-3-yl)-5-cyclopropylisoxazole-3-carboxamide]	88.9	9.7
CC(C)NC1CCN(S(=O)(=O)N2CC[C@H](NC(=O)c3cc(C4CC4)on3)C[C@@H]2C)CC1 [compound 581, 5-cyclopropyl-N-((2S,4S)-1-((4-(isopropylamino)piperidin-1-yl)sulfonyl)-2-methylpiperidin-4-yl)isoxazole-3-carboxamide]	143	10.1
CN1C2CC1CN(S(=O)(=O)N1[C@@H]3CC[C@H]1C[C@@H](NC(=O)c1cc(C4CC4)on1)C3)C2 [compound 582, 5-cyclopropyl-N-((1R,3r,5S)-8-((6-methyl-3,6-diazabicyclo[3.1.1]heptan-3-yl)sulfonyl)-8-azabicyclo[3.2.1]octan-3-yl)isoxazole-3-carboxamide]	151	10.1
COCCN1CCC(CS(=O)(=O)N2CC[C@@H](NC(=O)c3cc(C4CC4)on3)C[C@H]2C)CC1 [compound 583, 5-cyclopropyl-N-((2R,4R)-1-(((1-(2-methoxyethyl)piperidin-4-yl)methyl)sulfonyl)-2-methylpiperidin-4-yl)isoxazole-3-carboxamide]	234	10.4
CC[C@H]1CN(S(=O)(=O)N2CC[C@H](NC(=O)c3cc(C4CC4)on3)C[C@@H]2C)CCN1 [compound 584, 5-cyclopropyl-N-((2S,4S)-1-(((S)-3-ethylpiperazin-1-yl)sulfonyl)-2-methylpiperidin-4-yl)isoxazole-3-carboxamide]	159	10.5
C[C@H]1C[C@@H](NC(=O)c2cc(C3CC3)on2)CCN1S(=O)(=O)N1CCCNCC1 [compound 585, N-((2S,4S)-1-((1,4-diazepan-1-yl)sulfonyl)-2-methylpiperidin-4-yl)-5-cyclopropylisoxazole-3-carboxamide]	186	10.6
CN(CCN)CCCS(=O)(=O)N1[C@@H]2CC[C@H]1C[C@@H](NC(=O)c1cc(C3CC3)on1)C2 [compound 586, N-((1R,3r,5S)-8-((3-((2-aminoethyl)(methyl)amino)propyl)sulfonyl)-8-azabicyclo[3.2.1]octan-3-yl)-5-cyclopropylisoxazole-3-carboxamide]	263	10.7
C[C@H]1C[C@@H](NC(=O)c2cc(C3CC3)on2)CCN1S(=O)(=O)CC1CCN(CCN2CCOCC2)CC1 [compound 587, 5-cyclopropyl-N-((2S,4S)-2-methyl-1-(((1-(2-morpholinoethyl)piperidin-4-yl)methyl)sulfonyl)piperidin-4-yl)isoxazole-3-carboxamide]	311	10.7
C[C@H]1C[C@@H](NC(=O)c2cc(C3CC3)on2)CCN1S(=O)(=O)N1CC2CC(C1)N2 [compound 588, N-((2S,4S)-1-((3,6-diazabicyclo[3.1.1]heptan-3-yl)sulfonyl)-2-methylpiperidin-4-yl)-5-cyclopropylisoxazole-3-carboxamide]	151	10.8
C[C@@H]1C[C@H](NC(=O)c2cc(C3CC3)on2)CCN1S(=O)(=O)CC1CCN(CCO)CC1 [compound 589, 5-cyclopropyl-N-((2R,4R)-1-(((1-(2-hydroxyethyl)piperidin-4-yl)methyl)sulfonyl)-2-methylpiperidin-4-yl)isoxazole-3-carboxamide]	152	10.9
CN(C)CCNCCCS(=O)(=O)N1[C@@H]2CC[C@H]1C[C@@H](NC(=O)c1cc(C3CC3)on1)C2 [compound 590, 5-cyclopropyl-N-((1R,3r,5S)-8-((3-((2-(dimethylamino)ethyl)amino)propyl)sulfonyl)-8-azabicyclo[3.2.1]octan-3-yl)isoxazole-3-carboxamide]	175	10.9
CNCCCS(=O)(=O)N1[C@@H]2CC[C@H]1C[C@@H](NC(=O)c1cc(C3CC3)on1)C2 [compound 591, 5-cyclopropyl-N-((1R,3r,5S)-8-((3-(methylamino)propyl)sulfonyl)-8-azabicyclo[3.2.1]octan-3-yl)isoxazole-3-carboxamide]	150	11.1
C[C@H]1C[C@@H](NC(=O)c2cc(C3CC3)on2)CCN1S(=O)(=O)N1C[C@@H]2C[C@H]1CN2C [compound 592, 5-cyclopropyl-N-((2S,4S)-2-methyl-1-(((1S,4S)-5-methyl-2,5-diazabicyclo[2.2.1]heptan-2-yl)sulfonyl)piperidin-4-yl)isoxazole-3-carboxamide]	106	11.6
CN(C)CCCS(=O)(=O)N1[C@@H]2CC[C@H]1C[C@@H](NC(=O)c1cc(C3CC3)on1)C2 [compound 593, 5-cyclopropyl-N-((1R,3r,5S)-8-((3-(dimethylamino)propyl)sulfonyl)-8-azabicyclo[3.2.1]octan-3-yl)isoxazole-3-carboxamide]	147	11.8
O=C(N[C@H]1C[C@H]2CC[C@@H](C1)N2S(=O)(=O)NC1CC2(CNC2)C1)c1cc(C2CC2)on1 [compound 594, N-((1R,3r,5S)-8-(N-(2-azaspiro[3.3]heptan-6-yl)sulfamoyl)-8-azabicyclo[3.2.1]octan-3-yl)-5-cyclopropylisoxazole-3-carboxamide]	669	12
C[C@@H]1CN(S(=O)(=O)N2CCNCC2)[C@H](C)C[C@@H]1NC(=O)c1cc(C2CC2)on1 [compound 595, 5-cyclopropyl-N-((2R,4S,5R)-2,5-dimethyl-1-(piperazin-1-ylsulfonyl)piperidin-4-yl)isoxazole-3-carboxamide]	77.8	12.6
NCCNCCS(=O)(=O)N1[C@@H]2CC[C@H]1C[C@@H](NC(=O)c1cc(C3CC3)on1)C2 [compound 596, N-((1R,3r,5S)-8-((2-((2-aminoethyl)amino)ethyl)sulfonyl)-8-azabicyclo[3.2.1]octan-3-yl)-5-cyclopropylisoxazole-3-carboxamide]	379	12.8
O=C(N[C@H]1C[C@H]2CC[C@@H](C1)N2S(=O)(=O)CCCN1CCCC1)c1cc(C2CC2)on1 [compound 597, 5-cyclopropyl-N-((1R,3r,5S)-8-((3-(pyrrolidin-1-yl)propyl)sulfonyl)-8-azabicyclo[3.2.1]octan-3-yl)isoxazole-3-carboxamide]	217	12.9
CN(CCN)CCS(=O)(=O)N1[C@@H]2CC[C@H]1C[C@@H](NC(=O)c1cc(C3CC3)on1)C2 [compound 598, N-((1R,3r,5S)-8-((2-((2-aminoethyl)(methyl)amino)ethyl)sulfonyl)-8-azabicyclo[3.2.1]octan-3-yl)-5-cyclopropylisoxazole-3-carboxamide]	431	13.1
CN(C)CCNCCS(=O)(=O)N1[C@@H]2CC[C@H]1C[C@@H](NC(=O)c1cc(C3CC3)on1)C2 [compound 599, 5-cyclopropyl-N-((1R,3r,5S)-8-((2-((2-(dimethylamino)ethyl)amino)ethyl)sulfonyl)-8-azabicyclo[3.2.1]octan-3-yl)isoxazole-3-carboxamide]	213	13.5
